Measurements taken from paper PMC11714206, “Massively Parallel Screening of Toll/Interleukin‐1 Receptor (TIR)‐Derived Peptides Reveals Multiple Toll‐Like Receptors (TLRs)‐Targeting Immunomodulatory Peptides” (Advanced Science, 2024).
Values belong to the sequence of their own block, whether it stands above or below them.

Molecular target: T1, MyD88^TIR (Homo sapiens, UniProt Q99836)
T1 construct: MyD88 (residues 148–296); 6xHis; made in house; host or cells: E. coli BL21 (DE3)
Experiment: T‐Surf phage library (P8 and P3) selection against MyD88^TIR, four rounds, NGS read counts
Assay type: binding
Details: for P3_MyD88 Rank (after) / P3_MyD88 Rank (before): P3 library; for P8_MyD88 Rank (after) / P8_MyD88 Rank (before): P8 library; for Population: 4th round of selection against MyD88 TIR, share of NGS reads
How it was run: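 Read counts come from NGS of phage pools enriched over four selection rounds on the plate‐coated TIR domain (5 µg mL^−1). Each round: 1 h phage binding at room temperature after 0.2% BSA blocking, Tween washes, acid elution, amplification in E. coli TG1 with M13KO7 helper.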

[1] = selection against MyD88, rank after grouping
[2] = selection against MyD88, rank before grouping
[3] = P8_MyD88: rank by NGS read count after grouping
[4] = P8_MyD88: rank by NGS read count before grouping
[5] = selection against MyD88 TIR, rank by count after grouping
[6] = selection against MyD88 TIR, rank by count before grouping
[7] = 4R selection against MyD88, rank after grouping
[8] = 4R selection against MyD88, rank before grouping
[9] = P8_MyD88: rank by count after grouping
[10] = P8_MyD88: rank by count before grouping
[11] = P8_MyD88 pool: P8 T-Surf phage library
[12] = P3_MyD88: rank by count after grouping
[13] = P3_MyD88: rank by count before grouping
[14] = selection against MyD88, rank by count after grouping
[15] = selection against MyD88, rank by count before grouping
[16] = P3_MyD88 pool: P3 T-Surf phage library

T1 sequence (Q99836 148-296): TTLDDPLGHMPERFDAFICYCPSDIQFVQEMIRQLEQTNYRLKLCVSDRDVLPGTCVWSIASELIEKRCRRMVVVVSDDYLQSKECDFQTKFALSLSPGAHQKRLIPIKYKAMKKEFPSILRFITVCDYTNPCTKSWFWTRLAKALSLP

Sequence: YVDSPWALDELVKILQ
- P8_MyD88 Rank (after) [5]: 207
- P8_MyD88 Rank (before) [6]: 300

Sequence: LFWANLRAALQGDLPY
- Rank (after) [9]: 130
- Rank (before) [10]: 143
- Population [11]: 0.0116%

Sequence: DLVWDYLLPNLAGPAG
- Rank (after) [3]: 967
- Rank (before) [4]: 2386

Sequence: SSFREGLWRLLGLRKK
- P3_MyD88 Rank (after) [1]: 553
- P3_MyD88 Rank (before) [2]: 3165

Sequence: YTALTNSGIHTLRDND
- Rank (after) [12]: 174
- Rank (before) [13]: 1691

Sequence: GEDTRLPLPAICMRP
- P3_MyD88 Rank (after) [14]: 740
- P3_MyD88 Rank (before) [15]: 1831

Sequence: SSFREDLWRLLELSKK
- Population [16]: 0.00437%

Sequence: DPKALQWFYERLVSLI
- P8_MyD88 Rank (after) [1]: 562
- P8_MyD88 Rank (before) [2]: 3042

Sequence: RISAFHQQLVMALNTQ
- P3_MyD88 Rank (after) [7]: 614
- P3_MyD88 Rank (before) [8]: 2599

Sequence: DPQGLVWLYERLFSQI
- Rank (after) [3]: 918
- Rank (before) [4]: 2663

Sequence: PQDLAWYYVRLVSLIL
- P8_MyD88 Rank (after) [7]: 583
- P8_MyD88 Rank (before) [8]: 3423

Sequence: YTALNNMGFHTFRGND
- P3_MyD88 Rank (after) [14]: 705
- P3_MyD88 Rank (before) [15]: 1627

Sequence: YLKCGYPCFCDRLRFA
- P3_MyD88 Rank (after) [7]: 620
- P3_MyD88 Rank (before) [8]: 1566

Sequence: WALIELRTIMELWSGN
- P8_MyD88 Rank (after) [5]: 220
- P8_MyD88 Rank (before) [6]: 377

Sequence: TYLWWVEDERGQEYFW
- P8_MyD88 Rank (after) [5]: 221
- P8_MyD88 Rank (before) [6]: 370

Sequence: DPQEQLSFCERLITVF
- P8_MyD88 Rank (after) [14]: 743
- P8_MyD88 Rank (before) [15]: 2995

Sequence: EWVWDYLLPNLESPAG
- Rank (after) [9]: 437
- Rank (before) [10]: 3162

Sequence: YAFTGHLHATL
- Population [16]: 0.00291%

Sequence: YQWRNALSAAANLCGW
- P3_MyD88 Rank (after) [1]: 569
- P3_MyD88 Rank (before) [2]: 1617

Sequence: LSEESWRQALEKAGKL
- P3_MyD88 Rank (after) [5]: 202
- P3_MyD88 Rank (before) [6]: 2375

Sequence: DSWTSAALYEALHALL
- Rank (after) [9]: 156
- Rank (before) [10]: 172
- Population [11]: 0.00809%

Sequence: DPQDLDWVYERLVSLI
- P8_MyD88 Rank (after) [5]: 271
- P8_MyD88 Rank (before) [6]: 2825

Sequence: NVHESEIIKEIVDTIV
- Population [16]: 0.00291%

Sequence: LNVESWRQALERAGKL
- Rank (after) [12]: 187
- Rank (before) [13]: 2402

Sequence: YTALTNSGCPTFCVIA
- Rank (after) [12]: 444
- Rank (before) [13]: 1694

Sequence: YASSSWYLDELVRSLW
- Rank (after) [3]: 897
- Rank (before) [4]: 1860

Sequence: ARFKDMIINKWRTALKERLP
- P3_MyD88 Rank (after) [14]: 744
- P3_MyD88 Rank (before) [15]: 1964

Sequence: DHHLDLPRGKAINRKFW
- Rank (after) [12]: 102
- Rank (before) [13]: 355

Sequence: DPQYRDWFYERLVSLP
- P8_MyD88 Rank (after) [1]: 512
- P8_MyD88 Rank (before) [2]: 2642

More lines, now with the values ahead:

- P3_MyD88 Rank (after) [1]: 572
- P3_MyD88 Rank (before) [2]: 3283
Sequence: SNFRKGLSRLLELSKK

- Rank (after) [3]: 1023
- Rank (before) [4]: 1909
Sequence: YASNDDNDYYWVTHVRLRHL

- P3_MyD88 Rank (after) [5]: 263
- P3_MyD88 Rank (before) [6]: 1105
Sequence: RISAFHQQLVMALKERLP

- P3_MyD88 Rank (after) [7]: 603
- P3_MyD88 Rank (before) [8]: 1852
Sequence: GRYDELFMTETDERKC

- P8_MyD88 Rank (after) [1]: 550
- P8_MyD88 Rank (before) [2]: 1585
Sequence: WDFASSSWALDELLRILY

- Rank (after) [9]: 429
- Rank (before) [10]: 3305
Sequence: LGYHWTDWEYFVGIEA

- Rank (after) [12]: 431
- Rank (before) [13]: 2695
Sequence: RSFRKGLWRLLELSNK

- Rank (after) [3]: 890
- Rank (before) [4]: 1596
Sequence: WDFASNMAQVWERLYY

- Rank (after) [12]: 415
- Rank (before) [13]: 3270
Sequence: SSGRECLWRLLELRKK

- Rank (after) [9]: 441
- Rank (before) [10]: 2722
Sequence: DPQDLGWFYERLLSLF

- Rank (after) [3]: 912
- Rank (before) [4]: 3824
Sequence: TSTWALDELLRILY

- P8_MyD88 Rank (after) [7]: 619
- P8_MyD88 Rank (before) [8]: 2971
Sequence: DPQDQEWLYERLFSQM

- Rank (after) [9]: 127
- Rank (before) [10]: 141
- Population [11]: 0.0116%
Sequence: ELDFSHFWLFEGHATGEA

- P8_MyD88 Rank (after) [14]: 769
- P8_MyD88 Rank (before) [15]: 3687
Sequence: MEANSSRIWHRLLYSV

- P3_MyD88 Rank (after) [7]: 673
- P3_MyD88 Rank (before) [8]: 2999
Sequence: SENYATRPWAPDELVL

- P8_MyD88 Rank (after) [14]: 691
- P8_MyD88 Rank (before) [15]: 2906
Sequence: DPQDLQCSSERLVSLI

- P8_MyD88 Rank (after) [1]: 511
- P8_MyD88 Rank (before) [2]: 1815
Sequence: YASYDDNDYYWDPCAAASS

- Rank (after) [3]: 874
- Rank (before) [4]: 3264
Sequence: LGYHWIDWEYFVGIK

- P8_MyD88 Rank (after) [1]: 508
- P8_MyD88 Rank (before) [2]: 1386
Sequence: WSLDELLKILYAKETI

- P3_MyD88 Rank (after) [7]: 647
- P3_MyD88 Rank (before) [8]: 3106
Sequence: SREYASCSWALTELVH

- Rank (after) [12]: 153
- Rank (before) [13]: 944
Sequence: DHHLDLPRGKRLNRKFW
